Reference: ChEMBL document CHEMBL5723582, “Data for DCP probe T-10430” (2024)

Experiments:
Settings in all cases: Compound concentration 1.0 uM
[1] = target: Adenosine receptor A3 (Homo sapiens) (UniProt P0DMS8); assay: RLU of ADORA3 at 1.0 µM in the […] PRESTO-Tango GPCRome screen
[2] = target: Type-2 angiotensin II receptor (Homo sapiens) (UniProt P50052); assay: RLU of AGTR2 at 1.0 µM in the […] PRESTO-Tango GPCRome screen
[3] = target: C-C chemokine receptor type 3 (Homo sapiens) (UniProt P51677); assay: RLU of CCR3 at 1.0 µM in the […] PRESTO-Tango GPCRome screen
[4] = target: C-C chemokine receptor type 6 (Homo sapiens) (UniProt P51684); assay: RLU of CCR6 at 1.0 µM in the […] PRESTO-Tango GPCRome screen
[5] = target: C-C chemokine receptor type 7 (Homo sapiens) (UniProt P32248); assay: RLU of CCR7 at 1.0 µM in the […] PRESTO-Tango GPCRome screen
[6] = target: Muscarinic acetylcholine receptor M4 (Homo sapiens) (UniProt P08173); assay: RLU of CHRM4 at 1.0 µM in the […] PRESTO-Tango GPCRome screen
[7] = target: Corticotropin-releasing factor receptor 2 (Homo sapiens) (UniProt Q13324); assay: RLU of CRHR2 at 1.0 µM in the […] PRESTO-Tango GPCRome screen
[8] = target: C-X-C chemokine receptor type 3 (Homo sapiens) (UniProt P49682); assay: RLU of CXCR3 at 1.0 µM in the […] PRESTO-Tango GPCRome screen
[9] = target: D(2) dopamine receptor (Homo sapiens) (UniProt P14416); assay: RLU of DRD2 at 1.0 µM in the […] PRESTO-Tango GPCRome screen
[10] = target: Proteinase-activated receptor 1 (Homo sapiens) (UniProt P25116); assay: RLU of F2R at 1.0 µM in the […] PRESTO-Tango GPCRome screen
[11] = target: Proteinase-activated receptor 4 (Homo sapiens) (UniProt Q96RI0); assay: RLU of F2RL3 at 1.0 µM in the […] PRESTO-Tango GPCRome screen
[12] = target: Galanin receptor type 1 (Homo sapiens) (UniProt P47211); assay: RLU of GAL1 at 1.0 µM in the […] PRESTO-Tango GPCRome screen
[13] = target: Glucagon-like peptide 1 receptor (Homo sapiens) (UniProt P43220); assay: RLU of GLP1R at 1.0 µM in the […] PRESTO-Tango GPCRome screen
[14] = target: Adhesion G protein-coupled receptor F4 (Homo sapiens) (UniProt Q8IZF3); assay: RLU of GPR115 at 1.0 µM in the […] PRESTO-Tango GPCRome screen
[15] = target: Adhesion G protein-coupled receptor F5 (Homo sapiens) (UniProt Q8IZF2); assay: RLU of GPR116 at 1.0 µM in the […] PRESTO-Tango GPCRome screen
[16] = target: G-protein coupled receptor 157 (Homo sapiens) (UniProt Q5UAW9); assay: RLU of GPR157 at 1.0 µM in the […] PRESTO-Tango GPCRome screen
[17] = target: Probable G-protein coupled receptor 160 (Homo sapiens) (UniProt Q9UJ42); assay: RLU of GPR160 at 1.0 µM in the […] PRESTO-Tango GPCRome screen
[18] = target: G-protein coupled receptor 182 (Homo sapiens) (UniProt O15218); assay: RLU of GPR182 at 1.0 µM in the […] PRESTO-Tango GPCRome screen
[19] = target: Prosaposin receptor GPR37 (Homo sapiens) (UniProt O15354); assay: RLU of GPR37 at 1.0 µM in the […] PRESTO-Tango GPCRome screen
[20] = target: G-protein coupled receptor 37-like 1 (Homo sapiens) (UniProt O60883); assay: RLU of GPR37L1 at 1.0 µM in the […] PRESTO-Tango GPCRome screen
[21] = target: G-prodeshotein coupled receptor 4 (Homo sapiens) (UniProt P46093); assay: RLU of GPR4 at 1.0 µM in the […] PRESTO-Tango GPCRome screen
[22] = target: Adhesion G-protein coupled receptor G1 (Homo sapiens) (UniProt Q9Y653); assay: RLU of GPR56 at 1.0 µM in the […] PRESTO-Tango GPCRome screen
[23] = target: G-protein coupled receptor 61 (Homo sapiens) (UniProt Q9BZJ8); assay: RLU of GPR61 at 1.0 µM in the […] PRESTO-Tango GPCRome screen
[24] = target: G-protein coupled receptor 78 (Homo sapiens) (UniProt Q96P69); assay: RLU of GPR78 at 1.0 µM in the […] PRESTO-Tango GPCRome screen
[25] = target: G-protein coupled receptor family C group 5 member B (Homo sapiens) (UniProt Q9NZH0); assay: RLU of GPRC5B at 1.0 µM in the […] PRESTO-Tango GPCRome screen
[26] = target: G-protein coupled receptor family C group 6 member A (Homo sapiens) (UniProt Q5T6X5); assay: RLU of GPRC6A at 1.0 µM in the […] PRESTO-Tango GPCRome screen
[27] = target: Metabotropic glutamate receptor 1 (Homo sapiens) (UniProt Q13255); assay: RLU of GRM1 at 1.0 µM in the Aequorin PRESTO-Tango GPCRome screen
[28] = target: Metabotropic glutamate receptor 8 (Homo sapiens) (UniProt O00222); assay: RLU of GRM8 at 1.0 µM in the Aequorin PRESTO-Tango GPCRome screen
[29] = target: Hydroxycarboxylic acid receptor 1 (Homo sapiens) (UniProt Q9BXC0); assay: RLU of HCA1 at 1.0 µM in the Aequorin PRESTO-Tango GPCRome screen
[30] = target: 5-hydroxytryptamine receptor 2C (Homo sapiens) (UniProt P28335); assay: RLU of HTR2C at 1.0 µM in the […] PRESTO-Tango GPCRome screen
[31] = target: 5-hydroxytryptamine receptor 4 (Homo sapiens) (UniProt Q13639); assay: RLU of HTR4 at 1.0 µM in the […] PRESTO-Tango GPCRome screen
[32] = target: 5-hydroxytryptamine receptor 7 (Homo sapiens) (UniProt P34969); assay: RLU of HTR7 at 1.0 µM in the […] PRESTO-Tango GPCRome screen
[33] = target: Melanocortin receptor 5 (Homo sapiens) (UniProt P33032); assay: RLU of MC5R at 1.0 µM in the […] PRESTO-Tango GPCRome screen
[34] = target: Putative P2Y purinoceptor 10 (Homo sapiens) (UniProt O00398); assay: RLU of P2RY10 at 1.0 µM in the […] PRESTO-Tango GPCRome screen
[35] = target: Trace amine-associated receptor 5 (Homo sapiens) (UniProt O14804); assay: RLU of TAAR5 at 1.0 µM in the […] PRESTO-Tango GPCRome screen

C-C chemokine receptor type 6 (Homo sapiens), sequence (P51684 whole entry): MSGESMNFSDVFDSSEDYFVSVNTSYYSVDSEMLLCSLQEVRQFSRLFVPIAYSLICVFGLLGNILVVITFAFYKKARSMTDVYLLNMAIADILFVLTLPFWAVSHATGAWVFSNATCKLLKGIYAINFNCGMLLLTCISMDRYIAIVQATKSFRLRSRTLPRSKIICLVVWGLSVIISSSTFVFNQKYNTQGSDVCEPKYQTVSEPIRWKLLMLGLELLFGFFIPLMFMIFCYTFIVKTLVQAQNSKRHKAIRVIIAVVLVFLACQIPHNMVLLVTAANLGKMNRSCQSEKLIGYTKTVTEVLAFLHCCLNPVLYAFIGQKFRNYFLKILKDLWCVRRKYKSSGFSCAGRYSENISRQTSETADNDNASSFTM
G-protein coupled receptor 61 (Homo sapiens), sequence (Q9BZJ8 whole entry): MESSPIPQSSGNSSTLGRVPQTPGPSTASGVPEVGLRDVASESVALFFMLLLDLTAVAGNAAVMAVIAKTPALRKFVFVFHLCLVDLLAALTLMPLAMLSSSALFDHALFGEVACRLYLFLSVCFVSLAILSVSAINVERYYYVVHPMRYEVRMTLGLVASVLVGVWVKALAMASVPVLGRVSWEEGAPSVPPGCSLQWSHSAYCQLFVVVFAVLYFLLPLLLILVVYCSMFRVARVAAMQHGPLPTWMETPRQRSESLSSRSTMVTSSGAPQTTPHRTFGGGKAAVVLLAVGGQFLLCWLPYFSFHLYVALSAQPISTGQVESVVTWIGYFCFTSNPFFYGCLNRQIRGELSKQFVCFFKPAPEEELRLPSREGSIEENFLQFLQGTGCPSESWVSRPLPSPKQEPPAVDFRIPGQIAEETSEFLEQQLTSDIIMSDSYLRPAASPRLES
Adhesion G protein-coupled receptor F5 (Homo sapiens), sequence (Q8IZF2 whole entry): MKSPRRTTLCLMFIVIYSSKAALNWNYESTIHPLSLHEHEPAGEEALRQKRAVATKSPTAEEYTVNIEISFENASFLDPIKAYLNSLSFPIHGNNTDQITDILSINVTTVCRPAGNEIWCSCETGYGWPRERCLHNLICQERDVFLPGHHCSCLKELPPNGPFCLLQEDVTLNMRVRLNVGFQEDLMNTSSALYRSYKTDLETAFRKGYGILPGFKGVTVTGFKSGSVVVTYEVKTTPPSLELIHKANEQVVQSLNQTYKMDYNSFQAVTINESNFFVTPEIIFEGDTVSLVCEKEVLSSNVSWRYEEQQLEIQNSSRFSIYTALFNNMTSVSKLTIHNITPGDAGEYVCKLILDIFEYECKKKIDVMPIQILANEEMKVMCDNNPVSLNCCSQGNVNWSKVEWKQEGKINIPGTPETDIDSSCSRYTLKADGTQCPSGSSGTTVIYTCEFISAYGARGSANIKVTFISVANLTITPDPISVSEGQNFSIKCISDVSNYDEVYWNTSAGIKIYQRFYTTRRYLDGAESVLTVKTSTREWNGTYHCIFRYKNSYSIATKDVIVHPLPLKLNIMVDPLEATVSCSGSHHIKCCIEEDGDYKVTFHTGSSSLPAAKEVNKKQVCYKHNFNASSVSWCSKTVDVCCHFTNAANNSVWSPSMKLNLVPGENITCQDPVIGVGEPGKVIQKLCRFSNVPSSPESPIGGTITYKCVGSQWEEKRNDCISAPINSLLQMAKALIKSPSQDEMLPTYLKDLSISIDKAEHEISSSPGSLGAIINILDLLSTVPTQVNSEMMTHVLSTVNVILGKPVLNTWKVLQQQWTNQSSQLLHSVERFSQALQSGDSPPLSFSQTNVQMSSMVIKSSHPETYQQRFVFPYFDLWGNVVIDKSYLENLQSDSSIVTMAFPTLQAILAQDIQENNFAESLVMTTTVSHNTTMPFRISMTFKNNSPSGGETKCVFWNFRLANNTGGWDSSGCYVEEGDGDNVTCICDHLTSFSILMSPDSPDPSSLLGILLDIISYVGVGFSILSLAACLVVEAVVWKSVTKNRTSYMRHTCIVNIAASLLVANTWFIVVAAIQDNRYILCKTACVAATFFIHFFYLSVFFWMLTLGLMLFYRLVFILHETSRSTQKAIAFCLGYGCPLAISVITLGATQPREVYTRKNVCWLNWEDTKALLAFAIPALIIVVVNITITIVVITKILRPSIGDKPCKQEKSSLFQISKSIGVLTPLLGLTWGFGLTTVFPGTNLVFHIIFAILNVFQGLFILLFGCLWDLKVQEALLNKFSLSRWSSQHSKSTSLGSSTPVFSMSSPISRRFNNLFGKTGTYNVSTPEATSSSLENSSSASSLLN
G-protein coupled receptor family C group 5 member B (Homo sapiens), sequence (Q9NZH0 whole entry): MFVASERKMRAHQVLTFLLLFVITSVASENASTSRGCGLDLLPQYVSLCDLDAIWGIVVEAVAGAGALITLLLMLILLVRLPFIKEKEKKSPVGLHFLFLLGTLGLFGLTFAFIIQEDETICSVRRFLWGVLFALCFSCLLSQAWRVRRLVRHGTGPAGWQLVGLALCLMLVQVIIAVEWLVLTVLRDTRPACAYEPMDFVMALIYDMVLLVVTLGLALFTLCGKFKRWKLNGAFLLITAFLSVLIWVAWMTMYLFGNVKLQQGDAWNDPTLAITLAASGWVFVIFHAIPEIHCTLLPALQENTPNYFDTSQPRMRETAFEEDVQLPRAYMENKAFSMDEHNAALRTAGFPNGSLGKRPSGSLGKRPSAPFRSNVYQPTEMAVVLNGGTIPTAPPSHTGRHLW
Muscarinic acetylcholine receptor M4 (Homo sapiens), sequence (P08173 whole entry): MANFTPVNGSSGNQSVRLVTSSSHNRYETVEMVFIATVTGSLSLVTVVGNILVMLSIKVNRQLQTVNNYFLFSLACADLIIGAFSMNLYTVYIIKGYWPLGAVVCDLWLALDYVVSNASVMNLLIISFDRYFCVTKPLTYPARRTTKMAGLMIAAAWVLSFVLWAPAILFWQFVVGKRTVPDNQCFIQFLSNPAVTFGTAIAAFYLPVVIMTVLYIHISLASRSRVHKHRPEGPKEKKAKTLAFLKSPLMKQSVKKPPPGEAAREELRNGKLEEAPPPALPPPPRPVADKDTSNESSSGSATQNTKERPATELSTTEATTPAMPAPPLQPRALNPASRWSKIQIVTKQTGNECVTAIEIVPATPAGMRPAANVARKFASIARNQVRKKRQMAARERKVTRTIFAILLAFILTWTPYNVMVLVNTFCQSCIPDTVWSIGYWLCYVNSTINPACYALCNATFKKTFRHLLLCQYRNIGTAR
Melanocortin receptor 5 (Homo sapiens), sequence (P33032 whole entry): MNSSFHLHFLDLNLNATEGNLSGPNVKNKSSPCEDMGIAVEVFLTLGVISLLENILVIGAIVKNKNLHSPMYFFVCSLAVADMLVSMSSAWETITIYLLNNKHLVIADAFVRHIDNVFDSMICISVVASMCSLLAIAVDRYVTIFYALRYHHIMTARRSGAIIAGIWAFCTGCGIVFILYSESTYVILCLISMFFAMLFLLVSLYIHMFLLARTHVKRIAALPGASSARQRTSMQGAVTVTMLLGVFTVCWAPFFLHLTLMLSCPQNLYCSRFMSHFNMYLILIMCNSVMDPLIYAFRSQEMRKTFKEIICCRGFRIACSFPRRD
G-protein coupled receptor 78 (Homo sapiens), sequence (Q96P69 whole entry): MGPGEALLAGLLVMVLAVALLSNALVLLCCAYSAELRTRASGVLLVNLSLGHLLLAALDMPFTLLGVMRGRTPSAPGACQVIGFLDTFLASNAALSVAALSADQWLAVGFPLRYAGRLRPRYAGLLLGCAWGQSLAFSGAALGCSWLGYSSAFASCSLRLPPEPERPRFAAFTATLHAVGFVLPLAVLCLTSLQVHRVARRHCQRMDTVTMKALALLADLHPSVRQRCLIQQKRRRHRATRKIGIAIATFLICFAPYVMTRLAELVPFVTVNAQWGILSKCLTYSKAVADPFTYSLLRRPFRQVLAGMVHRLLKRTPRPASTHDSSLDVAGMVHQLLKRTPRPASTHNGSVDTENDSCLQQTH
Proteinase-activated receptor 4 (Homo sapiens), sequence (Q96RI0 whole entry): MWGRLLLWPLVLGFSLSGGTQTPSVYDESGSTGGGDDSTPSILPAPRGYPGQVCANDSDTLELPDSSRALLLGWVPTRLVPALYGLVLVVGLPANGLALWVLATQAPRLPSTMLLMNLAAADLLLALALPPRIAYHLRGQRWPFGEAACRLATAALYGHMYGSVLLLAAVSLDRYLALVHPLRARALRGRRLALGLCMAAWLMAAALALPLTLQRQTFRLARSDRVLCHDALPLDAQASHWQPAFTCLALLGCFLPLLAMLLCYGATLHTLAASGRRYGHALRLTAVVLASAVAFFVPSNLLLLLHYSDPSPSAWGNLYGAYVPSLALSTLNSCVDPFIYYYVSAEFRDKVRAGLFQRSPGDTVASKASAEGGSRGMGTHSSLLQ
C-C chemokine receptor type 3 (Homo sapiens), sequence (P51677 whole entry): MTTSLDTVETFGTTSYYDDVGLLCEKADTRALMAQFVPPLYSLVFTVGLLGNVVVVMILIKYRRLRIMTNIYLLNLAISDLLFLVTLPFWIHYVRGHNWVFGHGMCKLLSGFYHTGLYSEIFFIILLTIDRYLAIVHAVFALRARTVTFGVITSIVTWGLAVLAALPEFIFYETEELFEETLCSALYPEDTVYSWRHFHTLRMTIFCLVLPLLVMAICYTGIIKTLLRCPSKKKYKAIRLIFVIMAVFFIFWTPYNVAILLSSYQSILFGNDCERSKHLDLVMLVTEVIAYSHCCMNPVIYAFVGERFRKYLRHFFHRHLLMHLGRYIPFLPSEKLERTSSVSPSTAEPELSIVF
Probable G-protein coupled receptor 160 (Homo sapiens), sequence (Q9UJ42 whole entry): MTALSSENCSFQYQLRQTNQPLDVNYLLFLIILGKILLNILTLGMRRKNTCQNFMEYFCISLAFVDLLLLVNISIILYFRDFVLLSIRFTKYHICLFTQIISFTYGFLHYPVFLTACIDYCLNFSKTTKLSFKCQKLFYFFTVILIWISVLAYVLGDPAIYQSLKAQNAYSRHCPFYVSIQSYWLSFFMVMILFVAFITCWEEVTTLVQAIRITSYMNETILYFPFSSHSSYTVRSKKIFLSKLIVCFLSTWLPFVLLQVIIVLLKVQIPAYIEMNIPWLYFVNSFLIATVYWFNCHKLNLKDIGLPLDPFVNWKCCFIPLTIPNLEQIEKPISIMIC

**Q.** How did the RLU [1] turn out when CCCCC(=O)N1CC2(C1)CN(c1ccccc1-c1nnn[nH]1)C2 was run?
**A.** The RLU was 506.

**Q.** And the RLU [2]?
**A.** Its RLU is 5320.

**Q.** And the RLU [3]?
**A.** The RLU was 2420.

**Q.** What about the RLU [4] of the same compound?
**A.** The RLU was -2060.

**Q.** And the RLU [5]?
**A.** The RLU was 342.

**Q.** And the RLU [6]?
**A.** The RLU was -838.

**Q.** What about the RLU [7] of the same compound?
**A.** Its RLU is 410.

**Q.** And the RLU [8]?
**A.** The RLU was -568.

**Q.** And the RLU [9]?
**A.** The RLU was 2200.

**Q.** What about the RLU [10] of the same compound?
**A.** Its RLU is 1350.

**Q.** And the RLU [11]?
**A.** The RLU was 125.

**Q.** What about the RLU [12] of the same compound?
**A.** The RLU was -212.

**Q.** What about the RLU [13] of the same compound?
**A.** The RLU was 3480.

**Q.** And the RLU [14]?
**A.** The RLU was -283.

**Q.** What about the RLU [15] of the same compound?
**A.** The RLU was -663.

**Q.** What about the RLU [16] of the same compound?
**A.** Its RLU is -4180.

**Q.** And the RLU [17]?
**A.** Its RLU is 1900.

**Q.** What about the RLU [18] of the same compound?
**A.** The RLU was 598.

**Q.** What about the RLU [19] of the same compound?
**A.** The RLU was -1510.

**Q.** And the RLU [20]?
**A.** Its RLU is 153000.

**Q.** What about the RLU [21] of the same compound?
**A.** The RLU was -970.

**Q.** And the RLU [22]?
**A.** The RLU was 14100.

**Q.** What about the RLU [23] of the same compound?
**A.** The RLU was 1400.

**Q.** And the RLU [24]?
**A.** The RLU was 5.41.

**Q.** What about the RLU [25] of the same compound?
**A.** The RLU was -3640.

**Q.** And the RLU [26]?
**A.** Its RLU is -9110.

**Q.** What about the RLU [27] of the same compound?
**A.** The RLU was -511.

**Q.** What about the RLU [28] of the same compound?
**A.** Its RLU is -4060.

**Q.** And the RLU [29]?
**A.** Its RLU is 583.

**Q.** And the RLU [30]?
**A.** Its RLU is 1050.

**Q.** What about the RLU [31] of the same compound?
**A.** The RLU was -2330.

**Q.** And the RLU [32]?
**A.** Its RLU is -1000.

**Q.** What about the RLU [33] of the same compound?
**A.** The RLU was 481.

**Q.** And the RLU [34]?
**A.** The RLU was -82.4.

**Q.** And the RLU [35]?
**A.** Its RLU is 821.
